{"source": "paper PMC6979384", "about": "“Characterization of the plant homeodomain (PHD) reader family for their histone tail interactions” (Epigenetics & Chromatin, 2020)", "test_in_all_cases": "Histone peptide microarray", "assay_type_in_all_cases": "binding, human", "details_in_all_cases": "sheet \"Array Heatmap\"", "key": {"[1]": {"system": "KDM5B (3)", "excerpt": "(§1) To more comprehensively define the histone interactions of the 31 PHD readers identified from the domain microarray analyses, we probed each on an alternate microarray platform containing a library of 293 synthetic histone peptides with single or combinatorial PTMs (Additional file 2: Figure S4 and Additional file 3: Table S2).\n(§2) The 31 GST-tagged PHD readers identified in the PHD finger domain array were expressed and purified as previously. Histone peptide arrays and peptide pulldown assays were conducted as recently described (specifically, the optimized protocol from Petell et al. for the former).\n(§3) Supplementary file 13072_2020_328_MOESM3_ESM.xlsx: Additional file 3: Table S2. […] Excel Tab Peptide List is a compiled list of the entire 293 histone peptide library with amino acid sequence ranges. […] Each number corresponds to the peptide number designated in Peptide List. Excel Tab Average Signals is a compiled set of binding data: chromatin reader at 0.5 μM vs. entire 293 peptide library. Data is presented as the average and standard deviation of 4 replicates. The average signals are colored to indicate signal intensity with green being strong and white being weak/low. […] Key: red= stronger relative binding; blue = weaker relative binding. Excel Tab Array info summary is a table summarizing the domains, sequence coverage, array signal range, and noise for each of the GST-tagged readers assayed on the peptide microarrays."}, "[2]": {"system": "DPF2 (PPC2W2)", "excerpt": "as §1, §2, §3"}, "[3]": {"system": "KDM7A", "excerpt": "as §1, §2, §3"}, "[4]": {"system": "TRIM66 (PB)", "excerpt": "as §1, §2, §3"}, "[5]": {"system": "ING5", "excerpt": "as §1, §2, §3"}, "[6]": {"system": "AIRE (PP)", "excerpt": "as §1, §2, §3"}, "[7]": {"system": "MORC3 (CW)", "excerpt": "as §1, §2, §3"}, "[8]": {"system": "PHF13", "excerpt": "as §1, §2, §3"}, "[9]": {"system": "CHD5 (PPCC)", "excerpt": "as §1, §2, §3"}, "[10]": {"system": "PHF23", "excerpt": "as §1, §2, §3"}, "[11]": {"system": "KDM5A (3)", "excerpt": "as §1, §2, §3"}, "[12]": {"system": "TAF3", "excerpt": "as §1, §2, §3"}, "[13]": {"system": "PHF21A", "excerpt": "as §1, §2, §3"}, "[14]": {"system": "KDM5B (1)", "excerpt": "as §1, §2, §3"}, "[15]": {"system": "DIDO1", "excerpt": "as §1, §2, §3"}, "[16]": {"system": "KDM5A (1)", "excerpt": "as §1, §2, §3"}, "[17]": {"system": "ING2", "excerpt": "as §1, §2, §3"}, "[18]": {"system": "BAZ2B", "excerpt": "as §1, §2, §3"}, "[19]": {"system": "ING1", "excerpt": "as §1, §2, §3"}, "[20]": {"system": "KDM4C (TTP)", "excerpt": "as §1, §2, §3"}, "[21]": {"system": "PHF2", "excerpt": "as §1, §2, §3"}, "[22]": {"system": "MLL5", "excerpt": "as §1, §2, §3"}, "[23]": {"system": "SP140L", "excerpt": "as §1, §2, §3"}, "[24]": {"system": "BPTF (PB)", "excerpt": "as §1, §2, §3"}, "[25]": {"system": "CHD5 (PCC)", "excerpt": "as §1, §2, §3"}, "[26]": {"system": "ING4", "excerpt": "as §1, §2, §3"}, "[27]": {"system": "ING3", "excerpt": "as §1, §2, §3"}, "[28]": {"system": "CHD4 (PPCC)", "excerpt": "as §1, §2, §3"}, "[29]": {"system": "PHRF1 (RP)", "excerpt": "as §1, §2, §3"}, "[30]": {"system": "RAG2", "excerpt": "as §1, §2, §3"}, "[31]": {"system": "PHF8", "excerpt": "as §1, §2, §3"}, "[32]": {"details": "GST-tagged reader, histone peptide array, total n = 4"}}}
{"substance": "H3 (1-20) N-ac: H3 1-20", "values": [{"measurement": "Array Heatmap signal, KDM5B (3)", "setting": "[1]; GST-tagged KDM5B (3), arrays performed twice, total replicate number n = 4", "value": 0.5329}, {"measurement": "Array Heatmap signal, DPF2 (PPC2W2)", "setting": "[2]; GST-tagged DPF2 (PPC2W2), arrays performed twice, total replicate number n = 4", "value": 0.6951}, {"measurement": "Array Heatmap signal, KDM7A", "setting": "[3]; GST-tagged KDM7A, arrays performed twice, total replicate number n = 4", "value": 0.3283}, {"measurement": "Array Heatmap signal, TRIM66 (PB)", "setting": "[4]; GST-tagged TRIM66 (PB), arrays performed twice, total replicate number n = 4", "value": 0.7386}, {"measurement": "Array Heatmap signal, ING5", "setting": "[5]; GST-tagged ING5, arrays performed twice, total replicate number n = 4", "value": 0.3522}, {"measurement": "Array Heatmap signal, AIRE (PP)", "setting": "[6]; GST-tagged AIRE (PP), arrays performed twice, total replicate number n = 4", "value": 0.5035}, {"measurement": "Array Heatmap signal, MORC3 (CW)", "setting": "[7]; GST-tagged MORC3 (CW), arrays performed twice, total replicate number n = 4", "value": 0.4955}, {"measurement": "Array Heatmap signal, PHF13", "setting": "[8]; GST-tagged PHF13, arrays performed twice, total replicate number n = 4", "value": 0.6234}, {"measurement": "Array Heatmap signal, CHD5 (PPCC)", "setting": "[9]; GST-tagged CHD5 (PPCC), arrays performed twice, total replicate number n = 4", "value": 0.5483}, {"measurement": "Array Heatmap signal, PHF23", "setting": "[10]; GST-tagged PHF23, arrays performed twice, total replicate number n = 4", "value": 0.532}, {"measurement": "Array Heatmap signal, KDM5A (3)", "setting": "[11]; GST-tagged KDM5A (3), arrays performed twice, total replicate number n = 4", "value": 0.5353}, {"measurement": "Array Heatmap signal, TAF3", "setting": "[12]; GST-tagged TAF3, arrays performed twice, total replicate number n = 4", "value": 0.3122}, {"measurement": "Array Heatmap signal, PHF21A", "setting": "[13]; GST-tagged PHF21A, arrays performed twice, total replicate number n = 4", "value": 0.4724}, {"measurement": "Array Heatmap signal, KDM5B (1)", "setting": "[14]; GST-tagged KDM5B (1), arrays performed twice, total replicate number n = 4", "value": 0.6502}, {"measurement": "Array Heatmap signal, DIDO1", "setting": "[15]; GST-tagged DIDO1, arrays performed twice, total replicate number n = 4", "value": 0.6386}, {"measurement": "Array Heatmap signal, KDM5A (1)", "setting": "[16]; GST-tagged KDM5A (1), arrays performed twice, total replicate number n = 4", "value": 0.4705}, {"measurement": "Array Heatmap signal, ING2", "setting": "[17]; GST-tagged ING2, arrays performed twice, total replicate number n = 4", "value": 0.6126}, {"measurement": "Array Heatmap signal, BAZ2B", "setting": "[18]; GST-tagged BAZ2B, arrays performed twice, total replicate number n = 4", "value": 0.4663}, {"measurement": "Array Heatmap signal, ING1", "setting": "[19]; GST-tagged ING1, arrays performed twice, total replicate number n = 4", "value": 0.5284}, {"measurement": "Array Heatmap signal, KDM4C (TTP)", "setting": "[20]; GST-tagged KDM4C (TTP), arrays performed twice, total replicate number n = 4", "value": 0.4656}, {"measurement": "Array Heatmap signal, PHF2", "setting": "[21]; GST-tagged PHF2, arrays performed twice, total replicate number n = 4", "value": 0.4904}, {"measurement": "Array Heatmap signal, MLL5", "setting": "[22]; GST-tagged MLL5, arrays performed twice, total replicate number n = 4", "value": 0.5714}, {"measurement": "Array Heatmap signal, SP140L", "setting": "[23]; GST-tagged SP140L, arrays performed twice, total replicate number n = 4", "value": 0.3813}, {"measurement": "Array Heatmap signal, BPTF (PB)", "setting": "[24]; GST-tagged BPTF (PB), arrays performed twice, total replicate number n = 4", "value": 0.3531}, {"measurement": "Array Heatmap signal, CHD5 (PCC)", "setting": "[25]; GST-tagged CHD5 (PCC), arrays performed twice, total replicate number n = 4", "value": 0.8196}, {"measurement": "Array Heatmap signal, ING4", "setting": "[26]; GST-tagged ING4, arrays performed twice, total replicate number n = 4", "value": 0.4519}, {"measurement": "Array Heatmap signal, ING3", "setting": "[27]; GST-tagged ING3, arrays performed twice, total replicate number n = 4", "value": 0.4681}, {"measurement": "Array Heatmap signal, CHD4 (PPCC)", "setting": "[28]; GST-tagged CHD4 (PPCC), arrays performed twice, total replicate number n = 4", "value": 0.5805}, {"measurement": "Array Heatmap signal, PHRF1 (RP)", "setting": "[29]; GST-tagged PHRF1 (RP), arrays performed twice, total replicate number n = 4", "value": 0.6182}, {"measurement": "Array Heatmap signal, RAG2", "setting": "[30]; GST-tagged RAG2, arrays performed twice, total replicate number n = 4", "value": 0.259}, {"measurement": "Array Heatmap signal, PHF8", "setting": "[31]; GST-tagged PHF8, arrays performed twice, total replicate number n = 4", "value": 0.365}]}
{"substance": "H3 (1-25): H3 1-25", "values": [{"measurement": "Array Heatmap signal, KDM5B (3)", "setting": "[1]; [32]", "value": 0.5183}, {"measurement": "Array Heatmap signal, DPF2 (PPC2W2)", "setting": "[2]; [32]", "value": 0.7357}, {"measurement": "Array Heatmap signal, KDM7A", "setting": "[3]; [32]", "value": 0.3768}, {"measurement": "Array Heatmap signal, TRIM66 (PB)", "setting": "[4]; [32]", "value": 0.9221}, {"measurement": "Array Heatmap signal, ING5", "setting": "[5]; [32]", "value": 0.3412}, {"measurement": "Array Heatmap signal, AIRE (PP)", "setting": "[6]; [32]", "value": 0.5222}, {"measurement": "Array Heatmap signal, MORC3 (CW)", "setting": "[7]; [32]", "value": 0.6357}, {"measurement": "Array Heatmap signal, PHF13", "setting": "[8]; [32]", "value": 0.6012}, {"measurement": "Array Heatmap signal, CHD5 (PPCC)", "setting": "[9]; [32]", "value": 0.5322}, {"measurement": "Array Heatmap signal, PHF23", "setting": "[10]; [32]", "value": 0.5406}, {"measurement": "Array Heatmap signal, KDM5A (3)", "setting": "[11]; [32]", "value": 0.6477}, {"measurement": "Array Heatmap signal, TAF3", "setting": "[12]; [32]", "value": 0.2692}, {"measurement": "Array Heatmap signal, PHF21A", "setting": "[13]; [32]", "value": 0.4429}, {"measurement": "Array Heatmap signal, KDM5B (1)", "setting": "[14]; [32]", "value": 0.6949}, {"measurement": "Array Heatmap signal, DIDO1", "setting": "[15]; [32]", "value": 0.658}, {"measurement": "Array Heatmap signal, KDM5A (1)", "setting": "[16]; [32]", "value": 0.4713}, {"measurement": "Array Heatmap signal, ING2", "setting": "[17]; [32]", "value": 0.6234}, {"measurement": "Array Heatmap signal, BAZ2B", "setting": "[18]; [32]", "value": 0.4554}, {"measurement": "Array Heatmap signal, ING1", "setting": "[19]; [32]", "value": 0.5226}, {"measurement": "Array Heatmap signal, KDM4C (TTP)", "setting": "[20]; [32]", "value": 0.4415}, {"measurement": "Array Heatmap signal, PHF2", "setting": "[21]; [32]", "value": 0.5334}, {"measurement": "Array Heatmap signal, MLL5", "setting": "[22]; [32]", "value": 0.57}, {"measurement": "Array Heatmap signal, SP140L", "setting": "[23]; [32]", "value": 0.342}, {"measurement": "Array Heatmap signal, BPTF (PB)", "setting": "[24]; [32]", "value": 0.3452}, {"measurement": "Array Heatmap signal, CHD5 (PCC)", "setting": "[25]; [32]", "value": 0.8391}, {"measurement": "Array Heatmap signal, ING4", "setting": "[26]; [32]", "value": 0.4369}, {"measurement": "Array Heatmap signal, ING3", "setting": "[27]; [32]", "value": 0.4651}, {"measurement": "Array Heatmap signal, CHD4 (PPCC)", "setting": "[28]; [32]", "value": 0.5563}, {"measurement": "Array Heatmap signal, PHRF1 (RP)", "setting": "[29]; [32]", "value": 0.8507}, {"measurement": "Array Heatmap signal, RAG2", "setting": "[30]; [32]", "value": 0.2539}, {"measurement": "Array Heatmap signal, PHF8", "setting": "[31]; [32]", "value": 0.366}]}
